Test results taken from article PMC10537229, “Antimicrobial Peptides Originating from Expression Libraries of Aurelia aurita and Mnemiopsis leidyi Prevent Biofilm Formation of Opportunistic Pathogens” (Microorganisms, 2023).
Entries after “also recorded” stand apart in the source; their conditions may differ.

Tests used:
K. oxytoca [1] = assay: Biofilm prevention in vitro assay (crystal violet, static); type: cell-based, Klebsiella oxytoca; settings: 18 h; for effect on K. oxytoca biofilm formation (in words) / reduction of K. oxytoca biofilm formation over concentration range: synthetic peptide 0.4-112.5 µg/mL; for reduction of K. oxytoca biofilm formation over concentration range: maximum or overall reduction; for reduction of K. oxytoca biofilm formation at 112.5 µg/mL: synthetic peptide at highest concentration 112.5 µg/mL
Experimental: (§1) The opportunistic pathogenic bacteria K. oxytoca (DSM 7342, M5a1-type strain), P. aeruginosa PAO1 (DSM 1707, pathogenic-type strain), S. epidermidis RP62A (DSM 28319, clinical isolate from catheter sepsis), and S. aureus (DSM 11823, clinical isolate) were grown in 5 mL LB medium overnight at below-indicated temperatures. The cell concentrations of the overnight cultures were analyzed with Neubauer cell counting and set to 3 × 10^8 cells/mL using GC minimal medium (with 1% (v/v) glycerol and 0.3% (w/v) casamino acids) for K. oxytoca and Caso bouillon (17 g/L casein peptone, 3 g/L soybean peptone, 5 g/L NaCl, 2.5 g/L K2HPO4, and 2.5 g/L glucose) for the remaining strains in the crystal violet assay. Cultures were aliquoted in 96-well plates (180/195 µL for each cavity). Cell-free size-fractionated cell extracts (20 µL) and synthesized peptides (various concentrations, 5 µL) were added to the cultures. MTPs were closed with gas-permeable membranes (Breathe-Easy®, Diversified Biotech, Dedham, MA, USA) and incubated at 37 °C (P. aeruginosa, S. aureus, and S. epidermidis) or 30 °C (K. oxytoca) for 18 h without shaking. Three biological replicates were performed, each with eight technical replicates. Medium controls were performed for normalization. Biofilm formation was monitored and quantified using the crystal violet assay. Following an 18 h incubation period, the cell cultures were removed, and the wells underwent two washes with H2O. Biofilms that developed and adhered to the surfaces were subjected to staining using 200 μL of a 0.1% crystal violet solution (Carl Roth, Karlsruhe, Germany) for 10 min at room temperature (RT). The stained biofilms were left to air dry after eliminating the crystal violet solution through two H2O washes. A total of 200 μL of 96% ethanol was introduced into each stained well to solubilize the dye, and incubation at RT for 15 min followed. Biofilm formation was assessed by measuring the absorbance of resolved crystal violet at 590 nm with the plate reader Spectra max Plus 384 (Molecular Devices, Ismaning; Germany). The screening procedure is depicted in Figure S1.

P. aeruginosa PAO1 = assay: as above; type: cell-based, Pseudomonas aeruginosa; settings: synthetic peptide 0.4-112.5 µg/mL, 18 h
Experimental: as §1

S. aureus [2] = assay: as above; type: cell-based, Staphylococcus aureus; settings: synthetic peptide 0.4-112.5 µg/mL, 18 h
Experimental: as §1

S. epidermidis RP62A = assay: as above; type: cell-based, Staphylococcus epidermidis; settings: 18 h; for effect on S. epidermidis biofilm formation (in words) / reduction of S. epidermidis biofilm formation over concentration range: synthetic peptide 0.4-112.5 µg/mL; for reduction of S. epidermidis biofilm formation over concentration range: maximum or range of reduction
Experimental: as §1

K. oxytoca [3] = assay: Growth of planktonic-growing pathogens (turbidity at 600 nm); type: cell-based, Klebsiella oxytoca; settings: 112.5 µg/mL peptide, LB, 18 h, 80 rpm, 30 °C; mean of 2 biological x 8 technical replicates; control 1.21326667
Experimental: (§2) In addition, the potential growth-inhibiting effects of synthetic peptides were tested on planktonic-growing pathogens. Again, 3 × 10^8 cells/mL diluted in LB medium were aliquoted in 96-well plates (200 µL for each cavity). Synthetic peptides were added to two selected final concentrations of 3.5 µg/mL and 112.5 µg/mL at the beginning of the experiment. MTPs were closed with gas-permeable membranes and gently shaken at 80 rpm and 37 °C (P. aeruginosa, S. aureus, and S. epidermidis) or 30 °C (K. oxytoca) for 18 h. A comparative endpoint determination (growth control, peptide control IDR-1018, and identified peptides) of the turbidity at 600 nm was measured with plate reader Spectra max Plus 384. An unpaired t-test was conducted as a statistical hypothesis test to determine the significance (p-value) of growth differences.

P. aeruginosa = assay: as above; type: cell-based, Pseudomonas aeruginosa; settings: 18 h; for turbidity (600 nm), P. aeruginosa: 112.5 µg/mL peptide, LB, 80 rpm, 37 °C, mean of 2 biological x 8 technical replicates, control 1.2788369; for reduction of planktonic growth of P. aeruginosa: 112.5 µg/mL, versus control without peptide
Experimental: as §2

S. aureus [4] = assay: as above; type: cell-based, Staphylococcus aureus; settings: 18 h; for turbidity (600 nm), S. aureus: 112.5 µg/mL peptide, LB, 80 rpm, 37 °C, mean of 2 biological x 8 technical replicates, control 1.37192917; for reduction of planktonic growth of S. aureus: 112.5 µg/mL, versus control without peptide
Experimental: as §2

S. epidermidis = assay: as above; type: cell-based, Staphylococcus epidermidis; settings: 112.5 µg/mL peptide, LB, 18 h, 80 rpm, 37 °C; mean of 2 biological x 8 technical replicates; control 1.3398
Experimental: as §2

K. oxytoca M5aI = assay: Dynamic biofilm formation in microfluidic flow cell (Syto9, CLSM); type: cell-based, Klebsiella oxytoca; settings: peptide 10 ng/channel, GC medium, flow 15 µL/h, 24 h, 30 °C, mean ± SD of four biological x four technical replicates; for biofilm thickness: medium control 11 ± 6 µm; for biofilm volume: medium control 112 ± 62 µm^3
Description: The microfluidic flow cell system comprises a polymethyl methacrylate corpus with a single channel (1 × 8 × 0.1 mm). Two inlets and one outlet exist. A borosilicate glass (24 × 60 × 0.17 mm; Carl Roth, Karlsruhe, Germany) was fixed with the adhesive Black-Seal silicone (Weicon, Münster, Germany). Microliter syringes (Innovative Labor System GmbH, Stützenbach, Germany) were connected via polytetrafluoroethylene (PTFE) tubes (0.3 mm × 0.6 mm) (Bola, Grünsfeld, Germany) with the in- and outlets and clamped into a syringe pump (Model: 220) (KD Scientific, Holliston, MA, USA). The channel was sterilized by rinsing 70% EtOH for 24 h at a flow rate of 20 µL/h. Afterwards, the remaining ethanol was washed out with sterile water at 20 μL/h for 1 h. Subsequently, the channel was equilibrated with GC medium at 20 μL/h for 2 h. Inoculation was conducted with a cell suspension of 1 × 10^9 cells/mL, generated from an overnight culture of K. oxytoca M5aI. Initial cell adhesion was ensured by incubation at 30 °C for 1 h without any flow. Next, the channel was continuously rinsed at 15 μL/h with GC medium injected within the first inlet. The synthetic peptides IDR-1018 (biofilm-preventing control peptide, [47, 48], BiP_Aa_2, BiP_Aa_5, and BiP_Aa_6 were diluted in GC medium to a concentration of 25 µg/mL and injected within the second inlet. Thus, the final peptide concentration was 12.5 µg/mL, corresponding to 10 ng peptide within the 0.8 µL channel. Biofilm formation was conducted at a flow rate of 15 µL/h for 24 h at 30 °C. The biofilm formation of K. oxytoca M5aI was further studied without adding peptides. Four biological replicates were conducted for each treatment.
Biofilms were stained with the fluorescent dye Syto9 (488 nm) (Life Technologie, Carlsbad, CA, USA) and analyzed using the LSM 700 confocal laser scanning microscope (Zeiss, Oberkochen, Germany). Therefore, the microfluidic flow cells were washed with GC medium at 3 µL/min for 15 min. The channel was then filled with a 1:1000 dilution of the fluorescent dye Syto9 and incubated in the dark at RT for 30 min. Dye residues were removed by rinsing GC medium at 3 μL/min for 15 min. Four image stacks were recorded per flow cell with optical sections of 0.9 µm per z-step. The digital image acquisition, three-dimensional reconstruction, and calculation of the biofilm parameters were performed with the software “Zen Black” (version 14.0.22.201) (Zeiss, Oberkochen, Germany) and the microscopy image analysis software “Imaris” (version 9.9.0) (Oxford Instruments, Abingdon, UK).

[5] = Dimerization of peptide with increasing concentration (preliminary results); type: physicochemical
[6] = tested on: K. oxytoca, P. aeruginosa, S. epidermidis, and S. aureus; assay: Planktonic growth, statements on all pathogens; type: cell-based; settings: 18 h; for effect on planktonic growth (in words), high concentration: 112.5 µg/mL, all strains
Experimental: as §2

biofilm cells = settings: cited from earlier work
Experimental: (§3) The biofilm prevention was assayed parallel to the well-described 12 amino acids’ cationic AMP (VRLIVAVRIWRR), named IDR-1018 [19, 47, 48]. This innate defense component is derived from the natural bovine peptide Bactenecin and was reported to show antibiofilm activity against P. aeruginosa, E. coli, Acinetobacter baumannii, K. pneumoniae, Methicillin-resistant S. aureus, Salmonella Typhimurium, and Burkholderia cenocepacia. The inhibitory activity of IDR-1018 is based on the induced dispersal of cells from biofilms at very low peptide concentrations (0.8 µg/mL). The underlying ...

planktonic cells = settings: weak direct antimicrobial activity on planktonic cells; cited from earlier work
Experimental: as §3

Sequence: GRTTLYKKVGFFFFF [BiP_Ml_3, synthetic peptide from sORF of M. leidyi EST clone 010_9A]
- effect on K. oxytoca biofilm formation (in words) (K. oxytoca [1]): no significant effect
- effect on P. aeruginosa biofilm formation (in words) (P. aeruginosa PAO1): no significant effect; also recorded: slight interference
- effect on S. aureus biofilm formation (in words) (S. aureus [2]): no significant effect; also recorded: could not interfere with biofilm formation
- effect on S. epidermidis biofilm formation (in words) (S. epidermidis RP62A): growth increase at low peptide doses
- reduction of S. epidermidis biofilm formation at 112.5 µg/mL (S. epidermidis RP62A; synthetic peptide at highest concentration 112.5 µg/mL, versus biofilm control (100%)): 38%
- turbidity (600 nm), K. oxytoca (K. oxytoca [3]): 1.255
- turbidity (600 nm), P. aeruginosa (P. aeruginosa): 1.255
- reduction of planktonic growth of P. aeruginosa (P. aeruginosa): 1.5–5%
- turbidity (600 nm), S. aureus (S. aureus [4]): 1.345
- reduction of planktonic growth of S. aureus (S. aureus [4]): 1.5–5%
- turbidity (600 nm), S. epidermidis (S. epidermidis): 1.367

Sequence: QLFCTKLSPT [BiP_Aa_2, synthetic peptide from sORF of A. aurita EST clone 112_6C]
- effect on K. oxytoca biofilm formation (in words) (K. oxytoca [1]): no significant change in biofilm formation until 14.1 µg/mL
- reduction of K. oxytoca biofilm formation over concentration range (K. oxytoca [1]): up to 43%
- effect on P. aeruginosa biofilm formation (in words) (P. aeruginosa PAO1): negligible impact
- effect on S. aureus biofilm formation (in words) (S. aureus [2]): negligible impact; also recorded: could not interfere with biofilm formation
- effect on S. epidermidis biofilm formation (in words) (S. epidermidis RP62A): appeared to reverse with increasing concentrations
- reduction of S. epidermidis biofilm formation over concentration range (S. epidermidis RP62A): 45%
- turbidity (600 nm), K. oxytoca (K. oxytoca [3]): 1.204
- turbidity (600 nm), P. aeruginosa (P. aeruginosa): 1.2593
- reduction of planktonic growth of P. aeruginosa (P. aeruginosa): 1.5–5%
- turbidity (600 nm), S. aureus (S. aureus [4]): 1.304
- reduction of planktonic growth of S. aureus (S. aureus [4]): 1.5–5%
- turbidity (600 nm), S. epidermidis (S. epidermidis): 1.368
- biofilm thickness (K. oxytoca M5aI): 8 ± 3 µm
- biofilm volume (K. oxytoca M5aI): 34 ± 12 µm^3
- aggregation with increasing peptide concentration [5]: dimerization

Sequence: THSTMNFELHQRSIQSCSPKLL [BiP_Aa_4, synthetic peptide from sORF of A. aurita EST clone 127_8E]
- effect on K. oxytoca biofilm formation (in words) (K. oxytoca [1]): limited effect
- effect on P. aeruginosa biofilm formation (in words) (P. aeruginosa PAO1): limited effect
- effect on S. aureus biofilm formation (in words) (S. aureus [2]): limited effect; also recorded: could not interfere with biofilm formation
- reduction of S. epidermidis biofilm formation over concentration range (S. epidermidis RP62A): 23–47%
- turbidity (600 nm), K. oxytoca (K. oxytoca [3]): 1.219
- turbidity (600 nm), P. aeruginosa (P. aeruginosa): 1.281
- turbidity (600 nm), S. aureus (S. aureus [4]): 1.347
- turbidity (600 nm), S. epidermidis (S. epidermidis): 1.386
- effect on planktonic growth (in words), high concentration [6]: did not significantly inhibit planktonic growth

Sequence: TNFTRKFPVINSSPHQWYLKD [BiP_Aa_6, synthetic peptide from sORF of A. aurita EST clone 127_8H]
- reduction of K. oxytoca biofilm formation at 112.5 µg/mL (K. oxytoca [1]; versus biofilm control (100%)): 26%
- effect on P. aeruginosa biofilm formation (in words) (P. aeruginosa PAO1): initially increased and then gradually decreased, approaching control levels
- reduction of S. aureus biofilm formation over concentration range (S. aureus [2]; maximum or overall reduction): 6–23%
- reduction of S. epidermidis biofilm formation over concentration range (S. epidermidis RP62A): 43%
- turbidity (600 nm), K. oxytoca (K. oxytoca [3]): 1.2508
- turbidity (600 nm), P. aeruginosa (P. aeruginosa): 1.284
- turbidity (600 nm), S. aureus (S. aureus [4]): 1.38
- turbidity (600 nm), S. epidermidis (S. epidermidis): 1.393
- effect on planktonic growth (in words), high concentration [6]: did not significantly inhibit planktonic growth
- biofilm thickness (K. oxytoca M5aI): ≤ 8 ± 1 µm
- biofilm volume (K. oxytoca M5aI): 64 ± 36 µm^3

Sequence: VRLIVAVRIWRR [IDR-1018, 12 amino acids' cationic AMP, biofilm-preventing control peptide derived from bovine Bactenecin, reference compound]
- reduction of K. oxytoca biofilm formation at 3.5 µg/mL (K. oxytoca [1]; synthetic peptide 3.5 µg/mL, versus biofilm control (100%), on average): 30%
- reduction of K. oxytoca biofilm formation over concentration range (K. oxytoca [1]): 50%
- reduction of K. oxytoca biofilm formation at 112.5 µg/mL (K. oxytoca [1]; versus biofilm control (100%)): 70%
- effect on P. aeruginosa biofilm formation (in words) (P. aeruginosa PAO1): no interference; also recorded: almost unaffected
- effect on S. epidermidis biofilm formation (in words) (S. epidermidis RP62A): only affected to a minor extent
- turbidity (600 nm), K. oxytoca (K. oxytoca [3]): 1.187
- turbidity (600 nm), P. aeruginosa (P. aeruginosa): 1.23
- turbidity (600 nm), S. aureus (S. aureus [4]): 1.036
- turbidity (600 nm), S. epidermidis (S. epidermidis): 1.203
- effect on planktonic growth (in words), low concentration ([6]; 3.5 µg/mL, all pathogens): no effect was revealed
- effect on planktonic growth (in words), high concentration [6]: significantly reduced the planktonic growth of all strains
- biofilm thickness (K. oxytoca M5aI): 6 ± 2 µm
- biofilm volume (K. oxytoca M5aI): 32 ± 16 µm^3
- peptide concentration causing cell death of the biofilm cells (biofilm cells; higher concentrations): 10 µg/mL
- peptide concentration inducing dispersal of cells from biofilms (biofilm cells; very low peptide concentrations): 0.8 µg/mL
- MIC (planktonic cells): 19 µg/mL
